26 compounds from patent publication US20200385370A1 (SYNBLIA THERAPEUTICS, INC., priority 2017, published 2020) can be followed below.

Each structure is given as a SMILES string.

The experiment concerns the target T1, GST tagged IRAK4 (Homo sapiens, UniProt Q9NWZ3).
T1 construct: purchased SignalChem
T1 sequence (Q9NWZ3 1-460): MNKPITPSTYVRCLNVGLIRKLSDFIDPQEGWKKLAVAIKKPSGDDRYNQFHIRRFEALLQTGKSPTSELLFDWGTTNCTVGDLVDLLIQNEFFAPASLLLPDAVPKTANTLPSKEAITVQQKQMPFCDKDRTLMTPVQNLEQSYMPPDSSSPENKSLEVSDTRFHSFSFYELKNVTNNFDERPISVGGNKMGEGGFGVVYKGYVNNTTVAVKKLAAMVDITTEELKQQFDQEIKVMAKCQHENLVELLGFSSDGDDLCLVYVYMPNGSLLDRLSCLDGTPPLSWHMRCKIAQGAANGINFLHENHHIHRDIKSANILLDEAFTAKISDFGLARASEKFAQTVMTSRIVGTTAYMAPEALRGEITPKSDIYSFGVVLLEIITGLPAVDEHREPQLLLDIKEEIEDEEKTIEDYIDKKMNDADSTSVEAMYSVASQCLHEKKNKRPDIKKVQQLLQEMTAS
Nature of the experiment: IRAK4 kinase activity assay, IMAP fluorescence polarization, phosphorylation of fluorescently labeled peptide. Type of experiment: biochemical. The conditions noted are these: 0.5 nM GST tagged IRAK4, 100 nM peptide substrate, 100 μM ATP, 30 minutes at 25° C. As for the experimental part: The kinase activity of IRAK4 is measured by its ability to phosphorylate a fluorescently labeled synthetic peptide in the presence of ATP. The assay format is based on the Immobilized Metal Ion Affinity-Based Fluorescence Polarization (IMAP) platform developed by Molecular Devices. Briefly, reaction mixture (20 μL) contains the assay buffer (20 mM Tris.Cl, pH 7.2, 1 mM MgCl2, 1 mM DTT, and 0.02% Tween 20), 0.5 nM GST tagged IRAK4 (SignalChem), 100 nM peptide substrate and 100 μM ATP. The amino acid sequence of the peptide substrate is 5FAM-RKRQGSVRRRVH-COOH (Cat #: RP7030, Molecular Devices). The reaction is initiated by adding substrates ATP and RP7030, and terminated by adding Stop solution (60 μL) after 30 minutes of incubation at 25° C. The Stop solution is prepared with IMAP Progressive Reagent A/B and Binding reagent according to vender's instruction. The extent of phosphorylation of the peptide is measured by changes in Fluorescence Polarization (FP) resulting from binding of phosphate group on the peptide with immobilized metal coordination complexes on the nanoparticles included in the Stop solution. Errors in the calculated IRAK4 IC50 values range from 4-12% from duplicate experiments.
On the technique in general: Polarisation of emitted light reports the rotation of a fluorescent probe.
What is called IC50 is the midpoint of a concentration-inhibition curve. Read a low IC50 as greater potency. On to `COc1cc2c(OCC3CCC(=O)N3)nccc2cc1OC(N)=O` (centres unmarked) [II, 7-methoxy-1-((5-oxopyrrolidin-2-yl)methoxy)isoquinolin-6-yl carbamate], for which the concentration for half-maximal inhibition (IC50) fell in the range of 3 to 10 µM.
In turn, `COc1cc2c(ccn2[C@H]2CC[C@H](N)C2)cc1C(N)=O` [XXIII, 1-((1S, 3S) 3-aminocyclopentyl)-6-methoxy-1H-indole-5-carboxamide] showed an IC50 of 0.5 to 3 µM.
Consider `COc1cc2c(N[C@@H]3CCNC3)nccc2cc1C(N)=O` [Compound XXXII, (R)-7-methoxy-1-(pyrrolidin-3-ylamino)isoquinoline-6-carboxamide], for which the IC50 is 0.5 to 3 µM.
The compound `COc1cc2c(S[C@@H]3CCCN(C(=O)CC#N)C3)nccc2cc1C(N)=O` [Compound XXXI, (R)-1-((1-(2-cyanoacetyl)piperidin-3-yl)thio)-7-methoxyisoquinoline-6-carboxamide] returned an IC50 of 3 to 10 µM.
The figure for `CC#Cc1cnc(N2CCC[C@H](N)C2)c2cc(OC)c(C(N)=O)cc12` [XXXIV, (S)-1-(3-aminopiperidin-1-yl)-7-methoxy-4-(prop-1-yn-1-yl)soquinoline-6-carboxamide] is below 0.5 µM.
The compound `COc1cc2c(OC[C@@H]3CCC(=O)N3)nccc2cc1C(N)=S` [Compound XI, (S)-7-methoxy-1-((5-oxopyrrolidin-2-yl)methoxy)isoquinoline-6-carbothioamide] gave an IC50 of 0.5 to 3 µM.
`CC[C@@H]1CC(=O)N2COCCOc3cc4c(nccc4cc3C(N)=O)OC[C@H]12` [XIX, (4^2S, 4^3R)-4^3-ethyl-4^5-oxo-2,6,9-trioxa-1 (1,7)-isoquinolina-4 (2,1)-pyrrolidinacyclononaphane-1^6-carboxamide] had an IC50 of 0.5 to 3 µM.
The compound `CC[C@@H]1CC(=O)N[C@@H]1CNc1nccc2cc(C(N)=O)c(OC)cc12` [Compound XXVIII, 1-((((2S, 3R)-3-ethyl-5-oxopyrrolidin-2-yl)methyl)amino)-7-methoxyisoquinoline-6-carboxamide] yielded a concentration for half-maximal inhibition (IC50) below 0.5 µM.
Consider `COc1cc2c(N3CCC[C@H](N)C3)ncc(Br)c2cc1C(N)=O` [XXXV, (S)-1-(3-aminopiperidin-1-yl)-4-bromo-7-methoxyisoquinoline-6-carboxamide], for which the IC50 fell in the range of 0.5 to 3 µM.
Compound `COc1cc2c(OC[C@@H]3CCC(=O)N3)nccc2cc1C(=O)S` [XIII, (S)-7-methoxy-1-((5-oxopyrrolidin-2-yl)methoxy) isoquinoline-6-carbothioic S-acid] yielded an IC50 of 0.5 to 3 µM.
Consider `NC(=O)c1cc2ccnc3c2cc1OCCOCN1C(=O)OCC1CO3` (centres unmarked) [XVII, 1^2-oxo-3,5,8-trioxa-1(4,3)-oxazolidina-4(1,7)-isoquinolinacyclononaphane-4^6-carboxamide], for which the IC50 was in the range of 0.5 to 3 µM.
For `COc1cc2c(NCC3CCC(=O)N3)nccc2cc1C(N)=O` (centres unmarked) [VII, 7-methoxy-1-(((5-oxopyrrolidin-2-yl)methyl)amino) isoquinoline-6-carboxamide], the IC50 is 0.5 to 3 µM.
The figure for `CCC[C@@H]1CC(=O)N2COCCOc3cc4c(nccc4cc3C(N)=O)OC[C@H]12` [Compound XXIV, (4^2S,4^3R)-4^5-oxo-4^3-propyl-2,6,9-trioxa-1 (1,7)-isoquinolina-4 (2,1)-pyrrolidinacyclononaphane-1^6-carboxamide] is 0.5 to 3 µM; for `C[C@@H]1CC(=O)N2COCCOc3cc4c(nccc4cc3C(N)=O)OC[C@H]12` [Compound XXV, (4^2S, 4^3R)-4^3-methyl-4^5-oxo-2,6,9-trioxa-1 (1,7)-isoquinolina-4 (2,1)-pyrrolidinacyclononaphane-1^6-carboxamide] it is below 0.5 µM; for `CC#Cc1cnc(NC[C@@H]2CCC(=O)N2)c2cc(OC)c(C(N)=O)cc12` [Compound XXII, (S)-7-methoxy-1-(((5-oxopyrrolidin-2-yl)methyl)amino)-4-(prop-1-yn-1-yl) isoquinoline-6-carboxamide] it is below 0.5 µM.
The figure for `COc1cc2c(N3CCC[C@H](N)C3)ncc(C#N)c2cc1C(N)=O` [XXXVI, (S)-1-(3-aminopiperidin-1-yl)-4-cyano-7-methoxyisoquinoline-6-carboxamide] is 0.5 to 3 µM.
In the case of `COc1cc2c(N3CCC(C)(CN)CC3)nccc2cc1C(N)=O` [Compound XXVI, 1-(4-(aminomethyl)-4-methylpiperidin-1-yl)-7-methoxyisoquinoline-6-carboxamide], the IC50 was in the range of 0.5 to 3 µM.
`COc1cc2c(N[C@@H]3CCCN(C(=O)CC#N)C3)nccc2cc1C(N)=O` [Compound XXX, (R)-1-((1-(2-cyanoacetyl)piperidin-3-yl)amino)-7-methoxyisoquinoline-6-carboxamide] showed an IC50 of 3 to 10 µM.
`COc1cc2c(N3CCC[C@H](O)C3)nccc2cc1C(N)=O` [Compound XXI, (S)-1-(3-hydroxypiperidin-1-yl)-7-methoxyisoquinoline-6-carboxamide] had an IC50 of 0.5 to 3 µM.
In the case of `NC(=O)c1cc2ccnc3c2cc1OCCOCN1C(=O)CC[C@H]1CO3` [XVIII, (S)-4^5-oxo-2,6,9-trioxa-1(1,7)-isoquinolina-4(2,1)-pyrrolidinacyclononaphane-1^6-carboxamide], the IC50 was below 0.5 µM.
Consider `COc1cc2c(N[C@@H]3CCCNC3)nccc2cc1C(N)=O` [Compound XXIX, (R)-7-methoxy-1-(piperidin-3-ylamino) isoquinoline-6-carboxamide], for which the IC50 fell in the range of 0.5 to 3 µM.
The figure for `NC(=O)c1cc2ccnc3c2cc1OCCOCCN1C(=O)CCC1CO3` (centres unmarked) [Compound IX, 4^5-oxo-2,7,10-trioxa-1(1,7)-isoquinolina-4(2,1)-pyrrolidinacyclodecaphane-1^6-carboxamide] is 3 to 10 µM.
For `NC(=O)c1cc2ccnc3c2cc1OCCOCC(=O)N1CC(CO3)C1` [Compound XIV, 5-oxo-2,7,10-trioxa-1(1,7)-isoquinolina-4(3,1)-azetidinacyclodecaphane-16-carboxamide] the value was 0.5 to 3 µM.
Regarding `COc1cc2c(OCC3CCC(=O)N3)nccc2cc1C(=O)NO` (centres unmarked) [IV, N-hydroxy-7-methoxy-1-((5-oxopyrrolidin-2-yl)methoxy) isoquinoline-6-carboxamide], the IC50 fell in the range of 3 to 10 µM.
`COc1cc2c(N3CCC(N)CC3)nccc2cc1C(N)=O` [Compound XXVII, 1-(4-aminopiperidin-1-yl)-7-methoxyisoquinoline-6-carboxamide]: the IC50 is 0.5 to 3 µM.
The figure for `COc1cc2c(N3CCC[C@H](N)C3)nccc2cc1C(N)=O` [Compound XX, (S)-1-(3-aminopiperidin-1-yl)-7-methoxyisoquinoline-6-carboxamide] is below 0.5 µM.
